# According to patent publication US10894087B2, “Multi-arm polymeric prodrug conjugates of cabazitaxel-based compounds” (Nektar Therapeutics, priority 2010, dated 2021):
# Like-named read-outs stand apart in the source and are kept apart here.
# Key:
# [1] = system: H460 non-small cell lung cancer (NSCLC) implants; settings: for % TGD / Median TTE (Median Time to Endpoint) / TGD (tumor growth delay compared to vehicle) / CR (Number of Complete Regressions) / Deaths / PR (Number of Partial Regressions) / TFS (Number of Tumor Free Survivors) / MTV (Median Tumor Volume) / BW Nadir (d), day of nadir: iv; for % TGD / Median TTE (Median Time to Endpoint) / TGD (tumor growth delay compared to vehicle) / CR (Number of Complete Regressions) / Deaths / PR (Number of Partial Regressions) / TFS (Number of Tumor Free Survivors) / MTV (Median Tumor Volume): qwk x 3; for CR (Number of Complete Regressions) / Deaths / PR (Number of Partial Regressions) / TFS (Number of Tumor Free Survivors): N=10; for BW Nadir (d), day of nadir: mouse, in vivo
# Procedure: Purpose. Studies were conducted to assess the growth inhibitory effects of PEGylated-conjugates of cabazitaxel on H460 non-small cell lung cancer (NSCLC) implants in athymic nu/nu mice.
# Experimental plan. These studies were conducted using routine methods and materials that are familiar to those skilled in the art. Briefly, 8 to 12 week old female nu/nu mice were injected subcutaneously in the flank with 1×10^7 H460 tumor cells in 0.2 mL sterile buffer. […] Animals received three intravenous doses of test article at one week intervals beginning on day 1. Cabazitaxel solutions were prepared in D5W containing 5% Tween 80:10% ethanol. PEG-cabazitaxel conjugates were prepared in D5W. The administration volume for all test articles was 10 mL/kg. The test doses were selected to represent the MTD and ½ the MTD for each test compound. The tables list the actual mg/kg for each test article and the corresponding cabazitaxel equivalent calculated based on the weight-percent cabazitaxel content for each PEGylated conjugate.
# Animals were weighed on days 1-5, 7, 9, 11, 13 then biweekly until the end of the study. Tumor sizes were measured using calipers biweekly throughout the study and tumor volumes were calculated using the formula for an ellipsoid sphere: L×W^2/2=mm^3, where L and W are the major axis dimensions of the tumor in mm. Additional parameters that were monitored were the number of non-specific deaths, number of partial and complete tumor regressions, number of tumor-free survivors, and the time required for individual animals' tumors to reach 2000 mm^3. The median time for a tumor to reach 2000 mm^3 in the treatment groups (T) and control group (C) was used to calculate of the overall delay in the growth of the median tumor (TGD). Animals were monitored individually until reaching the experimental endpoint: tumor size of 2000 mm^3 or 45 days, whichever came first. […] When the study endpoint was reached, the animals were euthanized.
# [2] = Maximum tolerated dose (MTD) study of PEGylated conjugates of cabazitaxel in athymic mice; type: in vivo, female athymic nu/nu mice; settings: qw x 3, iv; for Treatment-Related Deaths: N=5
# Procedure: Purpose. This study was performed to determine appropriate doses of each compound for tumor xenograft studies. In those studies, it is desirable to administer the maximum dose of test compound that will not cause excessive loss of body weight. In general, loss of ˜15% of the initial body weight of the animal is typically the maximum desired.
# Experimental procedure. MTD for 4-arm-conjugated to cabazitaxel were determined in female athymic nu/nu mice using standard methods. Briefly, 8-12 week old mice were administered test compounds or cabazitaxel intravenously at one week intervals for a total of three doses per mouse (qw×3, iv) as shown in Tables 1 and 2. For all PEG-conjugated test compounds, the doses of both the conjugate and released cabazitaxel, calculated from the cabazitaxel content of the respective conjugate, are shown. […] PEG-cabazitaxel conjugates were prepared in D5W. […] Mice were observed daily for clinical signs and body weights were recorded on days 1-5 and then biweekly until the end of study. All procedures were conducted in compliance with IACUC requirements. […] For any group with two measurements of mean body weight loss of greater than 20%, dosing was stopped and recovery was allowed. Within a group with greater than 20% mean weight loss, individual animals greater than 30% body weight loss were euthanized. Compound dosing was terminated for any group in which mean weight loss exceeded 20% or >10% of animals died. Moribund animals were euthanized and all animals were euthanized at end of study (day 30).
# Results. The results for the study MTD “20K Conjugates” are summarized in Table 3 and FIG. 1 while the results for the MTD “30K and 40K Conjugates” study are summarized Table 4 and FIG. 2. […] It should be noted that this is not meant to be a definitive MTD, but is simply a guide to select an appropriate dose for conducting tumor xenograft studies using this administration route and schedule. Note too, that these MTD are given as cabazitaxel equivalents. The actual dose of each conjugate must be corrected for the wt % of cabazitaxel in that specific conjugate.
# [3] = mainly by the CYP3A4/5 isozyme; cited from earlier work
# [4] = 20K conjugate xenograft study, 12.5 mg/kg cabazitaxel eq.
# [5] = 20K conjugate xenograft study, 25 mg/kg cabazitaxel eq.
# [6] = MTD study 20K conjugates, 15 mg/kg cabazitaxel eq.
# [7] = MTD study 20K conjugates, 30 mg/kg cabazitaxel eq.
# [8] = 20K conjugate xenograft study, 15 mg/kg cabazitaxel eq.
# [9] = 20K conjugate xenograft study, 30 mg/kg cabazitaxel eq.
# [10] = 30K and 40K conjugate xenograft study, 15 mg/kg cabazitaxel eq.
# [11] = 30K and 40K conjugate xenograft study, 30 mg/kg cabazitaxel eq.
# [12] = MTD study 30K and 40K conjugates, 30 mg/kg cabazitaxel eq.
compound,measurement,setting,value
4-ARM-PEG20K-Butanoate-Linked Cabazitaxel Conjugate [4-arm-PEG20K-BA-Cabazitaxel],Tumor growth inhibition compared with cabazitaxel and the other conjugates (in words),[1]; 20K conjugate xenograft study,did not provide greater tumor growth inhibition than either cabazitaxel or the other PEG-cabazitaxel conjugates tested in this study
same,% TGD,[1]; [4],36%
same,Median TTE (Median Time to Endpoint),[1]; [4],25.3 days
same,TGD (tumor growth delay compared to vehicle),[1]; [4],6.7 days
same,CR (Number of Complete Regressions),[1]; [4],0
same,Deaths,[1]; [4],0
same,PR (Number of Partial Regressions),[1]; [4],0
same,TFS (Number of Tumor Free Survivors),[1]; [4],0
same,% TGD,[1]; [5],112%
same,Median TTE (Median Time to Endpoint),[1]; [5],39.3 days
same,TGD (tumor growth delay compared to vehicle),[1]; [5],20.8 days
same,CR (Number of Complete Regressions),[1]; [5],0
same,Deaths,[1]; [5],0
same,PR (Number of Partial Regressions),[1]; [5],0
same,TFS (Number of Tumor Free Survivors),[1]; [5],0
same,Treatment-Related Deaths,"[2]; MTD study 20K conjugates, 7.5 mg/kg cabazitaxel eq.",0
same,BW Nadir,[2]; [6],−1.3%
same,BW Nadir (day),[2]; [6],2 days
same,Treatment-Related Deaths,[2]; [6],0
same,BW Nadir,[2]; [7],−16.6%
same,BW Nadir (day),[2]; [7],20 days
same,Treatment-Related Deaths,[2]; [7],0
same,"Estimated MTD, cabazitaxel equivalents","[2]; athymic nu/nu mice, guide value, not a definitive MTD",25 mg/kg
"CO[C@H]1C(=O)[C@]2(C)[C@@H](OC)C[C@H]3OC[C@@]3(OC(C)=O)[C@H]2[C@H](OC(=O)c2ccccc2)[C@]2(O)C[C@H](OC(=O)[C@H](O)[C@@H](NC(=O)OC(C)(C)C)c3ccccc3)C(C)=C1C2(C)C [Cabazitaxel, (2α,5β,7β,10β,13α-4-acetoxy-13-({(2R,3S)-3-[(tertbutoxycarbonyl)amino]-2-hydroxy-3-phenylpropanoyl}oxy)-1-hydroxy-7,10-dimethoxy-9-oxo-5,20-epoxytax-11-en-2-yl benzoate]",% TGD,[1]; [8],52%
same,MTV (Median Tumor Volume),[1]; [8],1764 mm^3
same,Median TTE (Median Time to Endpoint),[1]; [8],28.1 days
same,TGD (tumor growth delay compared to vehicle),[1]; [8],9.6 days
same,CR (Number of Complete Regressions),[1]; [8],0
same,Deaths,[1]; [8],0
same,PR (Number of Partial Regressions),[1]; [8],0
same,TFS (Number of Tumor Free Survivors),[1]; [8],0
same,% TGD,[1]; [9],154%
same,MTV (Median Tumor Volume),[1]; [9],918 mm^3
same,TGD (tumor growth delay compared to vehicle),[1]; [9],28.5 days
same,CR (Number of Complete Regressions),[1]; [9],0
same,Deaths,[1]; [9],0
same,PR (Number of Partial Regressions),[1]; [9],3
same,TFS (Number of Tumor Free Survivors),[1]; [9],0
same,% TGD,[1]; [10],87%
same,Median TTE (Median Time to Endpoint),[1]; [10],27.9 days
same,TGD (tumor growth delay compared to vehicle),[1]; [10],13 days
same,CR (Number of Complete Regressions),[1]; [10],0
same,Deaths,[1]; [10],0
same,PR (Number of Partial Regressions),[1]; [10],0
same,TFS (Number of Tumor Free Survivors),[1]; [10],0
same,% TGD,[1]; [11],208%
same,MTV (Median Tumor Volume),[1]; [11],994 mm^3
same,TGD (tumor growth delay compared to vehicle),[1]; [11],31.1 days
same,CR (Number of Complete Regressions),[1]; [11],0
same,Deaths,[1]; [11],0
same,PR (Number of Partial Regressions),[1]; [11],5
same,TFS (Number of Tumor Free Survivors),[1]; [11],0
same,"BW Nadir (d), day of nadir",[1]; 15 mg/kg,(22) d
same,"BW Nadir (d), day of nadir",[1]; 30 mg/kg,(22) d
same,Extent metabolized in the liver,[3],> 95%
same,BW Nadir,[2]; [7],−15.4%
same,BW Nadir (day),[2]; [7],20 days
same,Treatment-Related Deaths,[2]; [7],0
same,BW Nadir,[2]; [12],−6.8%
same,BW Nadir (day),[2]; [12],21 days
same,Treatment-Related Deaths,[2]; [12],0
